These results are taken from patent publication US8987195B2 (priority 2012, dated 2015).

Molecules are shown by their SMILES. pIC50: −log10 of the molar value.

The experiment deals with HCV NS3/4A protease genotype 1b (Hepatitis C virus genotype 1b, UniProt P26663). Nature of the experiment: HCV NS3/4A protease time-resolved fluorescence (TRF) assay, Ki against genotype 1b. The note with it: for IC50: IC50 [gt-1b] (nM), NS3/4A genotype 1b, enzyme 0.2 nM; for pIC50: IC50 [gt-1b], NS3/4A protease TRF assay, genotype 1b enzyme 0.2 nM. It is filed as biochemical. The protocol:
Measuring NS3/4A Inhibitory Activity (Ki) Against Genotype 1b, Against A156T Mutants and Against Genotype 3a
One assay for measuring inhibitory activity is HCV NS3 protease time-resolved fluorescence (TRF) assay as described below and in Mao et al., Anal. Biochem. 373:1-8, 2008 and International Patent Application Publication WO 2006/102087. A NS3 protease assay can be performed, for example, in a final volume of 20 μl assay buffer containing 50 mM HEPES, pH 7.5, 150 mM NaCl, 15% glycerol, 0.15% TRITON X-100, 10 mM DTT, and 0.1% PEG 8000. NS3 and NS4A protease is pre-incubated with various concentrations of inhibitors in DMSO for 30 min. The reaction is initiated by adding the TRF peptide substrate (final concentration 25 nM). NS3 mediated hydrolysis of the substrate was run for 2.5 hours at room temperature. Product fluorescence is detected using A Pherastar Plus plate reader (BMG) or Envision (Perkin Elmer Life and Analytical Sciences with excitation at 340 nm and emission at 615 nm using the appropriate delay time optimized for the europium fluorescence probe. Testing concentrations of different enzyme forms are selected to result in a signal to background ratio (S/B) of 10-30. IC50 values are derived using a standard four-parameter fit to the data. Ki values are derived from IC50 values using the following formula, IC50=Ki(1+[S]/KM), Eqn (1), where [S] is the concentration of substrate peptide in the reaction and KM is the Michaelis constant. See P. Gallinari et al., 38 BIOCHEM. 5620-32 (1999); P. Gallinari et al., 72 J. VIROL. 6758-69 (1998); M. Taliani et al., 240 ANAL. BIOCHEM. 60-67 (1996); Mao et al., Analytical Biochemistry 373: 1-8, 2008.
The assay described above was run against genotype 1b at a concentration of 0.2 nM, against A156T mutant strains at a concentration of 0.4 nM, and against genotype 3a at a concentration of 0.025 nM.

In the case of `Cc1nc2cc(F)c(F)cc2c2c1O[C@]1(CC2)C[C@H]2C(=O)N[C@]3(C(=O)NS(=O)(=O)C4(C)CC4)C[C@H]3/C=C\CCCCC[C@H](NC(=O)OC3CCCCC3)C(=O)N2C1` [Example 203, cyclohexyl [(2R,6S,12Z,13aS,14aR,16aS)-8′,9′-difluoro-5′-methyl-14a-{[(1-methylcyclopropyl)sulfonyl]carbamoyl}-5,16-dioxo-1,1′,2′,5,6,7,8,9,10,11,13a,14,14a,15,16,16a-hexadecahydrospiro[cyclopropa[e]pyrrolo[1,2-a][1,4]diazacyclopentadecine-2,3′-pyrano[2,3-c]quinolin]-6-yl]carbamate], the IC50 (K+ salt) is 0.015 nM.

For `COc1ccc2nc(C(F)F)c3c(c2n1)CC[C@]1(C[C@H]2C(=O)N[C@]4(C(=O)NS(=O)(=O)C5(C)CC5)C[C@H]4/C=C\CCCCC[C@H](NC(=O)OC(C)(C)C)C(=O)N2C1)O3` [Example 12, tert-Butyl ((2R,6S,13aS,14aR,16aS,Z)-6′-(difluoromethyl)-2′-methoxy-14a-(((1-methylcyclopropyl)sulfonyl)carbamoyl)-5,16-dioxo-3,5,6,7,8,9,9′,10,10′,11,13a,14,14a, 15,16,16a-hexadecahydro-1H-spiro[cyclopropa[e]pyrrolo[1,2-a][1,4]diazacyclopentadecine-2,8′-pyrano[2,3-c][1,5]naphthyridin]-6-yl)carbamate], the IC50 was found to be 0.007 nM.

For `Cc1ccc2nc(C(F)(F)F)c3c(c2c1)CC[C@]1(C[C@H]2C(=O)N[C@]4(C(=O)NS(=O)(=O)C5(C)CC5)C[C@H]4/C=C\CCCCC[C@H](NC(=O)OC(C)(C)C(F)(F)F)C(=O)N2C1)O3` [Example 393, 1,1,1-trifluoro-2-methylpropan-2-yl [(2R,6S,12Z,13aS,14aR,16aS)-9′-methyl-14a-{[(1-methylcyclopropyl)sulfonyl]carbamoyl}-5,16-dioxo-5′-(trifluoromethyl)-1,1′,2′,5,6,7,8,9,10,11,13a,14,14a,15,16,16a-hexadecahydrospiro[cyclopropa[e]pyrrolo[1,2-a][1,4]diazacyclopentadecine-2,3′-pyrano[2,3-c]quinolin]-6-yl]carbamate], the pIC50 is 10.59.

For the compound `Cc1nc2ccc(OC(F)(F)F)cc2c2c1O[C@]1(CC2)C[C@H]2C(=O)N[C@]3(C(=O)NS(=O)(=O)C4(C)CC4)C[C@H]3/C=C\CCCCC[C@H](NC(=O)OC3(C)CCCC3)C(=O)N2C1` [Example 209, 1-methylcyclopentyl [(2R,6S,12Z,13aS,14aR,16aS)-5′-methyl-14a-{[(1-methylcyclopropyl)sulfonyl]carbamoyl}-5,16-dioxo-9′-(trifluoromethoxy)-1,1′,2′,5,6,7,8,9,10,11,13a,14,14a,15,16,16a-hexadecahydrospiro[cyclopropa[e]pyrrolo[1,2-a][1,4]diazacyclopentadecine-2,3′-pyrano[2,3-c]quinolin]-6-yl]carbamate], half-maximal inhibition (IC50) required 0.03 nM.

In the case of `CCc1nc2ccc(OCCCN3CCOCC3)cc2c2c1O[C@]1(CC2)C[C@H]2C(=O)N[C@]3(C(=O)NS(=O)(=O)C4(C)CC4)C[C@H]3/C=C\CCCCC[C@H](NC(=O)OCC(C)(C)C)C(=O)N2C1` [Example 521, 2,2-dimethylpropyl {(2R,6S,12Z,13aS,14aR,16aS)-5′-ethyl-14a-{[(1-methylcyclopropyl)sulfonyl]carbamoyl}-9′-[3-(morpholin-4-yl)propoxy]-5,16-dioxo-1,1′,2′,5,6,7,8,9,10,11,13a,14,14a,15,16,16a-hexadecahydrospiro[cyclopropa[e]pyrrolo[1,2-a][1,4]diazacyclopentadecine-2,3′-pyrano[2,3-c]quinolin]-6-yl}carbamate], the pIC50 (HCl salt) is 11.40.

For `COc1cc(Cl)c2nc(C(F)(F)F)c3c(c2c1)CC[C@]1(C[C@H]2C(=O)N[C@]4(C(=O)NS(=O)(=O)C5(C)CC5)C[C@H]4/C=C\CCCCC[C@H](NC(=O)OCC(C)(C)C)C(=O)N2C1)O3` [Example 401, 2,2-dimethylpropyl [(2R,6S,12Z,13aS,14aR,16aS)-7′-chloro-9′-methoxy-14a-{[(1-methylcyclopropyl)sulfonyl]carbamoyl}-5,16-dioxo-5′-(trifluoromethyl)-1,1′,2′,5,6,7,8,9,10,11,13a,14,14a,15,16,16a-hexadecahydrospiro[cyclopropa[e]pyrrolo[1,2-a][1,4]diazacyclopentadecine-2,3′-pyrano[2,3-c]quinolin]-6-yl]carbamate], the pIC50 was 10.24.

In turn, `COc1ccc2nc(C(F)(F)F)c3c(c2c1)[C@](C)(O)C[C@]1(C[C@H]2C(=O)N[C@]4(C(=O)NS(=O)(=O)C5(C)CC5)C[C@H]4/C=C\CCCCC[C@H](NC(=O)OCC(C)(C)C)C(=O)N2C1)O3` [Example 506, 2,2-dimethylpropyl [(1′R,2S,6S,12Z,13aS,14aR,16aS)-1′-hydroxy-9′-methoxy-1′-methyl-14a-{[(1-methylcyclopropyl)sulfonyl]carbamoyl}-5,16-dioxo-5′-(trifluoromethyl)-1,1′,2′,5,6,7,8,9,10,11,13a,14,14a,15,16,16a-hexadecahydrospiro[cyclopropa[e]pyrrolo[1,2-a][1,4]diazacyclopentadecine-2,3′-pyrano[2,3-c]quinolin]-6-yl]carbamate] gave a pIC50 of 10.82.

On to `COc1ccc2nc(C(F)F)c3c(c2c1)CC[C@]1(C[C@H]2C(=O)N[C@]4(C(=O)NS(=O)(=O)C5(C)CC5)C[C@H]4/C=C\CCCCC[C@H](NC(=O)OC4CCC4)C(=O)N2C1)O3` [Example 508, cyclobutyl [(2R,6S,12Z,13aS,14aR,16aS)-5′-(difluoromethyl)-9′-methoxy-14a-{[(1-methylcyclopropyl)sulfonyl]carbamoyl}-5,16-dioxo-1,1′,2′,5,6,7,8,9,10,11,13a,14,14a,15,16,16a-hexadecahydrospiro[cyclopropa[e]pyrrolo[1,2-a][1,4]diazacyclopentadecine-2,3′-pyrano[2,3-c]quinolin]-6-yl]carbamate], for which the pIC50 (K+ salt) is 11.40.

Compound `COc1ccc2nc(C(C)C)c3c(c2c1)[C@H](F)C[C@]1(C[C@H]2C(=O)N[C@]4(C(=O)NS(=O)(=O)C5(C)CC5)C[C@H]4/C=C\CCCCC[C@H](NC(=O)OC(C)(C)C)C(=O)N2C1)O3` [Example 32, tert-butyl ((1′R,2S,6S,13aS,14aR,16aS,Z)-1′-fluoro-5′-isopropyl-9′-methoxy-14a-(((1-methylcyclopropyl)sulfonyl)carbamoyl)-5,16-dioxo-1′,2′,3,5,6,7,8,9,10,11,13a,14, 14a,15,16,16a-hexadecahydro-1H-spiro[cyclopropa[e]pyrrolo[1,2-a][1,4]diazacyclopentadecine-2,3′-pyrano[2,3-c]quinolin]-6-yl)carbamate] had an IC50 of 0.024 nM.

In turn, `CC(C)(C)OC(=O)N[C@H]1CCCCC/C=C\[C@@H]2C[C@@]2(C(=O)NS(=O)(=O)C2(C)CC2)NC(=O)[C@@H]2C[C@]3(CCc4c(c(C(F)(F)F)nc5ccc(OCCN6CCCCC6)cc45)O3)CN2C1=O` [Example 67, tert-Butyl ((2R,6S,13aS,14aR,16aS,Z)-14a-(((1-methylcyclopropyl)sulfonyl)carbamoyl)-5,16-dioxo-9′(2-(piperidin-1-yl)ethoxy)-5′-(trifluoromethyl)-1′,2′,3,5,6,7,8,9,10,11,13a,14,14a,15,16,16a-hexadecahydro-1H-spiro[cyclopropa[e]pyrrolo[1,2-a][1,4]diazacyclopentadecine-2,3′-pyrano[2,3-c]quinolin]-6-yl)carbamate] had an IC50 of 0.021 nM.

As usually defined, the IC50 is the concentration at which inhibition is half-maximal. Usually pIC50 stands for the IC50 on a negative log10 scale, so that one unit is a factor of ten.
